# In the Kinase Knowledgebase extract (Sharma et al. 2016):
# pIC50: −log10 of the molar value.
# Biological target: MAPK14 (human) (UniProt Q16539)
# Experiment: Inhibition of MAPK14 Kinase Activity
# Conditions: THP.1 monocytic
# Chain of MAPK14 (human) (Q16539 whole entry, looked up): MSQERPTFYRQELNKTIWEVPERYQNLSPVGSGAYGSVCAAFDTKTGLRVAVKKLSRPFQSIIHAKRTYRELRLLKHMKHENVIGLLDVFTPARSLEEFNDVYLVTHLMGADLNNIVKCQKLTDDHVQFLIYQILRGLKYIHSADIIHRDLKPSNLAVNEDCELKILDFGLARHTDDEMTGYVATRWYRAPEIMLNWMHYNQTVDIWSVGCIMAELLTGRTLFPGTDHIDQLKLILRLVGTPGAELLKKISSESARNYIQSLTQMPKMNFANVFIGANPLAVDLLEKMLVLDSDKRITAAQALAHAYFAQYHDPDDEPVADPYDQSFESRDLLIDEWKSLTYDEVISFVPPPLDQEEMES
row,pIC50,SMILES
1,> 6.00,Cc1ccc(C(C)(C)O)cc1-n1c(C)cc(OCc2ccc(F)cc2F)c(Br)c1=O
2,4.00 to 4.60,O=c1cc(OCc2ccccc2Cl)ccn1Cc1ccccc1
3,4.60 to 6.00,Cc1c(OCc2ccc(F)cc2)ccn(Cc2cccc(F)c2)c1=O
4,4.60 to 6.00,Cc1cc(OCc2ccc(F)cc2F)c(Br)c(=O)n1-c1cccc(C(=O)N(C)CCO)c1
5,4.60 to 6.00,Cc1c(OCc2ccccc2)ccn(Cc2cccc(F)c2)c1=O
6,4.00 to 4.60,Cc1c(C2CO2)c(OCc2ccc(F)cc2F)c(Br)c(=O)n1-c1c(F)cccc1F (configuration not stated)
7,< 4.00,O=c1c(Br)c(OCc2ccccc2)ccn1Cc1ccccc1C(F)(F)F
8,> 6.00,Cc1cc(OCc2ccc(F)cc2F)c(Br)c(=O)n1-c1cccc(C(=O)NCCN)c1
9,< 4.00,O=c1c(Br)c(OCc2ccccc2)c(Br)cn1Cc1ccccc1
10,> 6.00,Cc1cc(OCc2ccc(F)cc2F)c(Cl)c(=O)n1-c1cc(CN)ccc1F
11,> 6.00,Cc1cc(OCc2ccc(F)cc2F)c(Br)c(=O)n1Cc1cccc(CN2CCOCC2)c1
12,> 6.00,Cc1cc(OCc2ccc(F)cc2F)c(Br)c(=O)n1-c1c(F)cc(Br)cc1F
13,> 6.00,Cc1cc(OCc2ccc(F)cc2F)c(Br)c(=O)n1-c1c(F)cc(F)cc1F
14,4.60 to 6.00,CCc1c(OCc2ccccc2)ccn(Cc2ccccc2)c1=O
15,4.60 to 6.00,COCCN(C)C(=O)c1cccc(-n2c(C)cc(OCc3ccc(F)cc3F)c(Br)c2=O)c1
16,> 6.00,Cc1cc(OCc2ccc(F)cc2F)c(Br)c(=O)n1Cc1cnc(CO)cn1
17,4.60 to 6.00,O=c1c(Br)c(NCc2cccc(F)c2)ccn1Cc1cccc(F)c1
18,4.00 to 4.60,C=Cc1c(OCc2ccccc2)ccn(Cc2ccccc2)c1=O
19,4.60 to 6.00,O=C(c1ccc(-n2ccc(OCc3ccccc3)c(Br)c2=O)cc1)N1CCOCC1
20,< 4.00,Cc1cc(OCc2ccc(F)cc2F)c(Br)c(=O)n1-c1ccc(C(=O)NO)cc1
21,4.60 to 6.00,O=C(O)c1cc(OCc2ccc(F)cc2F)c(Br)c(=O)n1-c1c(F)cccc1F

row,pIC50,SMILES
1,4.60 to 6.00,Cc1cc(OCc2ccc(F)cc2F)c(Br)c(=O)n1-c1c(F)c(Br)c(O)c(Br)c1F
2,< 4.00,O=c1c(Br)c(OCc2ccccc2)ccn1CC1CCCNC1 (configuration not stated)
3,4.60 to 6.00,COCC(=O)NCc1cccc(-n2c(C)cc(OCc3ccc(F)cc3F)c(Br)c2=O)c1
4,> 6.00,Cc1cc(OCc2ccc(F)cc2F)c(Br)c(=O)n1Cc1ccc(C(=O)N(C)C)cc1
5,> 6.00,Cc1ccc(CO)cc1-n1c(C)cc(OCc2ccc(F)cc2F)c(Cl)c1=O
6,> 6.00,COC(=O)c1ccc(-n2c(C)cc(OCc3ccc(F)cc3F)c(Br)c2=O)c(Cl)c1
7,4.60 to 6.00,N#Cc1ccccc1Cn1ccc(OCc2ccccc2)c(Br)c1=O
8,4.60 to 6.00,Cc1cc(OCc2ccc(F)cc2F)c(Br)c(=O)n1Cc1ccccc1C#N
9,> 6.00,Cc1cc(OCc2ccc(F)cc2F)c(Br)c(=O)n1-c1ccc(C(=O)NCCN)cc1
10,> 6.00,Cc1cc(OCc2ccc(F)cc2F)c(Br)c(=O)n1Cc1cccc(CNS(C)(=O)=O)c1
11,> 6.00,Cc1cc(OCc2ccc(F)cc2F)c(Br)c(=O)n1Cc1ccc(C(=O)NC(C)C)cc1
12,< 4.00,Cc1cc(OCc2ccc(F)cc2F)c(Br)c(=O)n1-c1ccc(C(C)(C)O)cn1
13,4.00 to 4.60,Cc1c(C=NO)c(OCc2ccc(F)cc2F)c(Br)c(=O)n1-c1c(F)cccc1F
14,4.60 to 6.00,CC(=O)NCc1cccc(-n2c(C)cc(OCc3ccc(F)cc3F)c(Br)c2=O)c1
15,> 6.00,COC(=O)c1ccc(C)c(-n2c(C)cc(OCc3ccc(F)cc3F)c(Cl)c2=O)c1
16,4.00 to 4.60,O=c1c(Br)c(OCc2ccccc2C(F)(F)F)ccn1Cc1ccccc1
17,< 4.00,O=c1cc(OCc2ccccc2)ccn1Cc1ccc(Br)cc1
18,4.60 to 6.00,CC(=O)OCC(=O)NCc1cccc(-n2c(C)cc(OCc3ccc(F)cc3F)c(Br)c2=O)c1
19,4.00 to 4.60,O=c1cc(OCc2cccc(Cl)c2)ccn1Cc1ccccc1
20,> 6.00,Cc1cc(OCc2ccc(F)cc2F)c(Cl)c(=O)n1-c1c(F)cc(N2CCN(C)CC2)cc1F
21,> 6.00,COC(=O)NCc1cccc(Cn2c(C)cc(OCc3ccc(F)cc3F)c(Br)c2=O)c1
